Tested on: PDE1
Experiment: In vitro HTRF PDE1 inhibition assay
Type: biochemical
Settings: HTRF cGMP assay, 100 nM cyclic GMP, PDE (1A3, 1B or 1C) with calmodulin, 45 minutes at 37° C.; isoform of the tabulated values not stated
Description: An exemplary procedure for the in vitro Homogenous Time Resolved Fluorescence assay, which can be used to determine the inhibitory action of compounds of the invention toward. PDE1 or its isoforms, follows.
The HTRF PDE1 assay utilized the HTRF (Homogenous Time Resolved Fluorescence) technology, which is based on the competition between unlabeled cyclic nucleotide and cyclic nucleotide labeled with XL665 for the binding to cyclic nucleotide-specific antibody labeled with cryptate. The HTRF signal is thus inversely proportional to the concentration of cyclic nucleotide being measured. Since phosphodiesterases break down cyclic nucleotides the HTRF signal was used to determine PDE activity.
The Cisbio cGMP HTRF assay kit (Cat no: 62GM2PEC) was utilized. Cyclic GMP was diluted to 200 nM in HTRF assay buffer (1 mM CaCl2, 10 mM MgCl2, 10 mM Tris-HCl, 0.1% BSA, pH7.4). 10 μl of compound or DMSO was diluted in 200 nM cyclic GMP solution and added to wells of a 96 well white plate to give 100 nM cyclic GMP in 1% DMSO final concentration. PDE (1A3, 1B or 1C) was diluted to 2× working concentration in HTRF assay buffer with […] Calmodulin, and 10 μl was added to initiate the reaction. The plate was then incubated for 45 minutes at 37° C. d2-Labelled cyclic GMP and anti-cGMP cryptate were diluted in 50 mM phosphate buffer, 0.8M KF, 1% Triton X100, 0.2% BSA, pH7.0. Following incubation 10 μl d2-cGMP, then 10 μl anti cGMP cryptate were added to each well and the plate was incubated for 45 minutes at room temperature. The plate was then read on Perkin Elmer Victor at 2 different FRET readings ex/emm 340 nm/665 nm and 340 nm/615 nm.
Compounds having an IC50 of <1 μM, are denoted as +++. Compounds having an IC50 of 1-10 μM, are denoted as ++. Compounds having an IC50 of >10 μM, are denoted as +.

Work on `CC(C)n1ncc2c(=O)n3c(nc21)CN(C)C(Cc1ccccc1)C3` (racemic) [Compound I-110, (±)-7-Benzyl-1-isopropyl-8-methyl-6,7,8,9-tetrahydropyrazino[1,2-a]pyrazolo[3,4-d]pyrimidin-4(1H)-one] yielded an IC50 greater than 10000 nM.
For `CC(c1ccc(Cl)cc1)N1CCn2c(nc3c(cnn3C3CCCC3)c2=O)C1` (racemic) [Compound I-113, (±)-8-(1-(4-Chlorophenyl)ethyl)-1-cyclopentyl-6,7,8,9-tetrahydropyrazino[1,2-a]pyrazolo[3,4-d]pyrimidin-4(1H)-one], the IC50 was 1000 to 10000 nM.
`COc1ccc(C(C)N2CCn3c(nc4c(cnn4C4CCCC4)c3=O)C2)cc1` (racemic) [Compound I-114, (±)-1-Cyclopentyl-8-(1-(4-methoxyphenyl)ethyl)-6,7,8,9-tetrahydropyrazino[1,2-a]pyrazolo[3,4-d]pyrimidin-4(1H)-one] was tested, and the IC50 was 1000 to 10000 nM.
`CC1c2nc3c(cnn3C3CCCC3)c(=O)n2CCN1Cc1ccc(Cl)cc1` (racemic) [Compound I-117, (±)-8-(4-Chlorobenzyl)-1-cyclopentyl-9-methyl-6,7,8,9-tetrahydropyrazino[1,2-a]pyrazolo[3,4-d]pyrimidin-4(1H)-one] showed an IC50 of 1000 to 10000 nM.
`COc1ccc(CN2CCn3c(nc4c(cnn4C4CCCC4)c3=O)C2C)cc1` (racemic) [Compound I-118, (±)-1-Cyclopentyl-8-(4-methoxybenzyl)-9-methyl-6,7,8,9-tetrahydropyrazino[1,2-a]pyrazolo[3,4-d]pyrimidin-4(1H)-one] showed an IC50 of 1000 to 10000 nM.
Work on `CC1Cn2c(nc3c(cnn3C3CCCC3)c2=O)CN1Cc1ccc(Cl)cc1` (racemic) [Compound I-119, (±)-8-(4-Chlorobenzyl)-1-cyclopentyl-7-methyl-6,7,8,9-tetrahydropyrazino[1,2-a]pyrazolo[3,4-d]pyrimidin-4(1H)-one] yielded an IC50 of less than 1000 nM.
With `COc1ccc(CN2Cc3nc4c(cnn4C4CCCC4)c(=O)n3CC2C)cc1` (racemic) [Compound I-120, (±)-1-Cyclopentyl-8-(4-methoxybenzyl)-7-methyl-6,7,8,9-tetrahydropyrazino[1,2-a]pyrazolo[3,4-d]pyrimidin-4(1H)-one] the IC50 was less than 1000 nM.
`CC1CN(Cc2ccc(Cl)cc2)Cc2nc3c(cnn3C3CCCC3)c(=O)n21` (racemic) [Compound I-121, (±)-8-(4-Chlorobenzyl)-1-cyclopentyl-6-methyl-6,7,8,9-tetrahydropyrazino[1,2-a]pyrazolo[3,4-d]pyrimidin-4(1H)-one] was tested, and the IC50 was 1000 to 10000 nM.
Work on `COc1ccc(CN2Cc3nc4c(cnn4C4CCCC4)c(=O)n3C(C)C2)cc1` (racemic) [Compound I-122, (±)-1-Cyclopentyl-8-(4-methoxybenzyl)-6-methyl-6,7,8,9-tetrahydropyrazino[1,2-a]pyrazolo[3,4-d]pyrimidin-4(1H)-one] yielded an IC50 of 1000 to 10000 nM.
`COc1ccc(CN2Cc3nc4c(cnn4C(C)C)c(=O)n3CC2C)cc1` (racemic) [Compound I-146, (±)-1-Isopropyl-8-(4-methoxybenzyl)-7-methyl-6,7,8,9-tetrahydropyrazino[1,2-a]pyrazolo[3,4-d]pyrimidin-4(1H)-one] gave an IC50 of 1000 to 10000 nM.
In the case of `CC1Cn2c(nc3c(cnn3C(C)C)c2=O)CN1Cc1ccc(Cl)cc1` (racemic) [Compound I-147, (±)-8-(4-Chlorobenzyl)-1-isopropyl-7-methyl-6,7,8,9-tetrahydropyrazino[1,2-a]pyrazolo[3,4-d]pyrimidin-4(1H)-one], the IC50 is reported as less than 1000 nM.
Work on `CC1Cn2c(nc3c(cnn3C(C)C)c2=O)CN1Cc1ccc(F)cc1` (racemic) [Compound I-148, (±)-8-(4-Fluorobenzyl)-1-isopropyl-7-methyl-6,7,8,9-tetrahydropyrazino[1,2-d]pyrazolo[3,4-d]pyrimidin-4(1H)-one] yielded an IC50 of less than 1000 nM.
`CC1Cn2c(nc3c(cnn3C(C)C)c2=O)CN1Cc1cccc(F)c1` (racemic) [Compound I-149, (±)-8-(3-Fluorobenzyl)-1-isopropyl-7-methyl-6,7,8,9-tetrahydropyrazino[1,2-a]pyrazolo[3,4-d]pyrimidin-4(1H)-one] was tested, and the IC50 was less than 1000 nM.
